Experimental data as given in patent publication US6005103A, “Pyrone derivatives as protease inhibitors and antiviral agents” (Warner-Lambert Company, priority 1994, dated 1999).
Converted amounts (≈) assume the structure as drawn.

Legend:
[1] = system: Staphylococcus aureus UC-76; experiment: Antibacterial activity, microtitration dilution method; assay type: cell-based; conditions: UC76, read-out: minimum inhibitory concentration (MIC)
Text: (§1) The compounds of the invention display antibacterial activity when tested by the microtitration dilution method as described in Heifetz, et al., Antimicr. Agents. & Chemoth. 6: 124 (1974) which is incorporated herein by reference.
(§2) By use of the above referenced method, the following minimum inhibitory concentration values (MICs in μg/mL) were obtained for representative compounds of the invention vs. clinically relevant gram positive pathogens which have become highly resistant to conventional therapy in recent years.

[2] = system: Staphylococcus aureus H228; experiment: as above; assay type: cell-based; conditions: read-out: minimum inhibitory concentration (MIC)
Text: as §1, §2

[3] = system: Enterococcus foecalis MGH2; experiment: as above; assay type: cell-based; conditions: read-out: minimum inhibitory concentration (MIC)
Text: as §1, §2

[4] = system: Streptococcus pyogenes C203; experiment: as above; assay type: cell-based; conditions: read-out: minimum inhibitory concentration (MIC)
Text: as §1, §2

[5] = system: Streptococcus pneumonia 5V-1; experiment: as above; assay type: cell-based; conditions: Streptococcus pneumoniae, 5V1, read-out: minimum inhibitory concentration (MIC)
Text: as §1, §2

HIV = conditions: cell-free and cell-mediated HIV infection; cited from earlier work

Row | MIC [1] | MIC [2] | MIC [3] | MIC [4] | MIC [5] | SMILES | HIV infection inhibition (in words) (HIV)
1 | 12.5 µg/mL (≈ 33.6 µM) | 12.5 µg/mL (≈ 33.6 µM) | 25 µg/mL (≈ 67.1 µM) | 25 µg/mL (≈ 67.1 µM) | 25 µg/mL (≈ 67.1 µM) | CC(C)CC(SC1CCCCC1)c1c(O)cc(-c2ccccc2)oc1=O (racemic) [Example 142, 3-[l-(Cyclohexylthio)-3-methylbutyl]-4-hydroxy-6-phenyl-2H-pyran-2-one (±)] | 
2 |  |  |  |  |  | CC(=O)CC(c1ccccc1)c1c(O)c2ccccc2oc1=O (stereo not drawn) [Warfarin, 3-(α-acetonylbenzyl)-4-hydroxycoumarin] | inhibiting cell-free and cell-mediated HIV infection
